According to paper PMC4755756, “Catalysis-dependent selenium incorporation and migration in the nitrogenase active site iron-molybdenum cofactor” (eLife, 2015):

Assays:
[1] = biological target: T1, nitrogenase MoFe-protein (Av1) (Azotobacter vinelandii, UniProt P07328); assay: inhibition of acetylene reduction, Dixon plot (gas chromatography); Se incorporation seen by crystallography; type: biochemical
T1 construct: gene nifD; purified Av1, (αβ)2 tetramer, with Av2; with MoFe-protein β subunit (NifK); Fe-protein (Av2)
Description: inhibition of acetylene reduction, Dixon plot (gas chromatography); Se incorporation seen by crystallography on nitrogenase MoFe-protein (Av1) | SeCN^- is a potent, yet reversible inhibitor of acetylene reduction

[2] = biological target: T1, nitrogenase MoFe-protein (Av1); assay: inhibition of acetylene reduction, Dixon plot (gas chromatography); type: biochemical

Compound | Ki [1] [mM] | Ki [2] [mM]
N#C[SeH] [selenocyanate] | 0.41 ± 0.03 | –
N#CS [thiocyanate] | – | 12.7 ± 1.2
